In ChEMBL document CHEMBL3991601, “The target landscape of clinical kinase drugs” (Science, 2017):
Activity calls are given as the source filed them.

What was measured:
[1] = molecular target: Hepatocyte growth factor receptor (Homo sapiens, UniProt P08581)
Activated CDC42 kinase 1 = Activated CDC42 kinase 1 (Homo sapiens, UniProt Q07912)
dCTP pyrophosphatase 1 = molecular target: T1, dCTP pyrophosphatase 1 (Homo sapiens, UniProt Q9H773)
T1 sequence (Q9H773 whole entry): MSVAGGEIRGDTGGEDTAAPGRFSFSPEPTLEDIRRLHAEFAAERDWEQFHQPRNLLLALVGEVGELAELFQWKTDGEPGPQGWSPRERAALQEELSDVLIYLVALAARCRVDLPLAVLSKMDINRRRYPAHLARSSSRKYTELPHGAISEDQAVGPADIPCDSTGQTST

Aurora kinase A = molecular target: T2, Aurora kinase A (Homo sapiens, UniProt O14965)
T2 sequence (O14965 whole entry): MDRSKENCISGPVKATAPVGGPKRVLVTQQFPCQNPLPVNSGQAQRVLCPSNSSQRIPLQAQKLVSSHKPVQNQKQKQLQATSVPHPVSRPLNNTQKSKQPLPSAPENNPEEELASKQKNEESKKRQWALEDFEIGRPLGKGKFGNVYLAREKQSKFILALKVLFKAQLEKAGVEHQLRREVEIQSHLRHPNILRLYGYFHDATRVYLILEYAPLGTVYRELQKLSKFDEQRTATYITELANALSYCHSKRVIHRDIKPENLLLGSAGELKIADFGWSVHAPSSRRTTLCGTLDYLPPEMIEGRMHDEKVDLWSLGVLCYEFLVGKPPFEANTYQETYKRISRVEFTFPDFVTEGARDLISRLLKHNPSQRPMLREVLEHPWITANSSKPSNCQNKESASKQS

Ephrin type-A receptor 7 = Ephrin type-A receptor 7 (Homo sapiens, UniProt Q15375)
[2] = molecular target: T3, Serine/threonine-protein kinase Nek2 (Homo sapiens, UniProt P51955)
T3 sequence (P51955 whole entry): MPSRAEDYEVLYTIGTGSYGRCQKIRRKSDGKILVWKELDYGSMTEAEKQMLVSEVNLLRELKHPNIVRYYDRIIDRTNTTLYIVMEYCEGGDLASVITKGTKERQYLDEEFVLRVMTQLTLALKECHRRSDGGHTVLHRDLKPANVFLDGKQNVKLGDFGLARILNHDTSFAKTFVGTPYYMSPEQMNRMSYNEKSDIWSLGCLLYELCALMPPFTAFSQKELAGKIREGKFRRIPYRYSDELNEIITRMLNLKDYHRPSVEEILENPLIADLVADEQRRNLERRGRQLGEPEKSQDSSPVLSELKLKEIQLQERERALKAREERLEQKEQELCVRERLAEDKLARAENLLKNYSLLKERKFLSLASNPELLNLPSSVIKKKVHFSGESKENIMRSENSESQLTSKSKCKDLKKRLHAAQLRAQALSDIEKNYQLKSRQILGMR

[3] = molecular target: Serine/threonine-protein kinase PAK 6 (Homo sapiens, UniProt Q9NQU5)
Chain of Serine/threonine-protein kinase PAK 6 (Q9NQU5 whole entry): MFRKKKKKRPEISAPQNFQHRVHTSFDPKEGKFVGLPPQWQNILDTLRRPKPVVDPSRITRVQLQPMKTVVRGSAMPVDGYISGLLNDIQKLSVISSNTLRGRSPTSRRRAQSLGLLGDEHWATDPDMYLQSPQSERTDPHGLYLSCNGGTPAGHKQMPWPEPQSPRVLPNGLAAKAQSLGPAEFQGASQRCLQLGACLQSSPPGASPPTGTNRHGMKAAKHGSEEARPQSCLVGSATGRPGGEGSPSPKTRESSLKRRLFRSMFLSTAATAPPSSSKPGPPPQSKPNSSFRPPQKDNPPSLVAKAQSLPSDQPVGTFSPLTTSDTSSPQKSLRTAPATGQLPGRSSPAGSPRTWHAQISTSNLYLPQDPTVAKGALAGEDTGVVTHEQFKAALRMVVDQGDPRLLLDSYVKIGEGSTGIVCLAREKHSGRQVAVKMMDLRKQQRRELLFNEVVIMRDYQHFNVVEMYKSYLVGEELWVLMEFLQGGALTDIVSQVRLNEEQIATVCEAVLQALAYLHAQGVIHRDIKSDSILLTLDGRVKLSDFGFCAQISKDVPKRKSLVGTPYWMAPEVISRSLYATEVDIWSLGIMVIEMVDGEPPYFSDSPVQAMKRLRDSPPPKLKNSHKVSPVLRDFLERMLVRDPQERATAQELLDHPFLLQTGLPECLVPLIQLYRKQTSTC

[4] = molecular target: Receptor-interacting serine/threonine-protein kinase 2 (Homo sapiens, UniProt O43353)
Chain of Receptor-interacting serine/threonine-protein kinase 2 (O43353 whole entry): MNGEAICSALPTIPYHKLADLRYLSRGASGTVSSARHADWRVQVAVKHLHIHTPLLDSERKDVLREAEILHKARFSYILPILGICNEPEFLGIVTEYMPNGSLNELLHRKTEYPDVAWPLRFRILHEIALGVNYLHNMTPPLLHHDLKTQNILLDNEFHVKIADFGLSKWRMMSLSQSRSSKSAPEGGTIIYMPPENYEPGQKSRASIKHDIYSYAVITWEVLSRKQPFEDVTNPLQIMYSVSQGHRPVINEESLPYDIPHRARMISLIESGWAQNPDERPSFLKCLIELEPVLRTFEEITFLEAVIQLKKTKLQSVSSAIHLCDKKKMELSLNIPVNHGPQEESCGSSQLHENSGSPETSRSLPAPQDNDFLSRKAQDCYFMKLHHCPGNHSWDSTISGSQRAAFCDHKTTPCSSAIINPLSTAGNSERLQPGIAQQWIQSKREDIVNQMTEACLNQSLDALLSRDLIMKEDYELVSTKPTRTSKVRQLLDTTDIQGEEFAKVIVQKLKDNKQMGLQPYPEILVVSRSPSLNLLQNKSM

[5] = molecular target: Dual specificity protein kinase CLK2 (Homo sapiens, UniProt P49760)
Chain of Dual specificity protein kinase CLK2 (P49760 whole entry): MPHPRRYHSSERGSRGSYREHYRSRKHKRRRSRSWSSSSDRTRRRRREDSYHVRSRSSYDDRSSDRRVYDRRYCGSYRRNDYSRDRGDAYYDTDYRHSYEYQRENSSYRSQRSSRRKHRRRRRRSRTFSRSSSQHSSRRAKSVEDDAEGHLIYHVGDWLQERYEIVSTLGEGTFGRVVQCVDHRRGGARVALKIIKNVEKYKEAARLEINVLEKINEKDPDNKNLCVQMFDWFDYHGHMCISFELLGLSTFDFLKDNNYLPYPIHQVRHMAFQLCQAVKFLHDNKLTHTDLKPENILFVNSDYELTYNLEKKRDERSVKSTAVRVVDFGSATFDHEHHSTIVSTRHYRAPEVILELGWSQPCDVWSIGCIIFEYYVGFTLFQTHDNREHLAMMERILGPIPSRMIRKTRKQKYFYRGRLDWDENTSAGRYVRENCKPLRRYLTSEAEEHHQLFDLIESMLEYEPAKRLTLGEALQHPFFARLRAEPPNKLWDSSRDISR

[6] = molecular target: T4, Eukaryotic translation initiation factor 5B (Homo sapiens, UniProt O60841)
T4 sequence (O60841 whole entry): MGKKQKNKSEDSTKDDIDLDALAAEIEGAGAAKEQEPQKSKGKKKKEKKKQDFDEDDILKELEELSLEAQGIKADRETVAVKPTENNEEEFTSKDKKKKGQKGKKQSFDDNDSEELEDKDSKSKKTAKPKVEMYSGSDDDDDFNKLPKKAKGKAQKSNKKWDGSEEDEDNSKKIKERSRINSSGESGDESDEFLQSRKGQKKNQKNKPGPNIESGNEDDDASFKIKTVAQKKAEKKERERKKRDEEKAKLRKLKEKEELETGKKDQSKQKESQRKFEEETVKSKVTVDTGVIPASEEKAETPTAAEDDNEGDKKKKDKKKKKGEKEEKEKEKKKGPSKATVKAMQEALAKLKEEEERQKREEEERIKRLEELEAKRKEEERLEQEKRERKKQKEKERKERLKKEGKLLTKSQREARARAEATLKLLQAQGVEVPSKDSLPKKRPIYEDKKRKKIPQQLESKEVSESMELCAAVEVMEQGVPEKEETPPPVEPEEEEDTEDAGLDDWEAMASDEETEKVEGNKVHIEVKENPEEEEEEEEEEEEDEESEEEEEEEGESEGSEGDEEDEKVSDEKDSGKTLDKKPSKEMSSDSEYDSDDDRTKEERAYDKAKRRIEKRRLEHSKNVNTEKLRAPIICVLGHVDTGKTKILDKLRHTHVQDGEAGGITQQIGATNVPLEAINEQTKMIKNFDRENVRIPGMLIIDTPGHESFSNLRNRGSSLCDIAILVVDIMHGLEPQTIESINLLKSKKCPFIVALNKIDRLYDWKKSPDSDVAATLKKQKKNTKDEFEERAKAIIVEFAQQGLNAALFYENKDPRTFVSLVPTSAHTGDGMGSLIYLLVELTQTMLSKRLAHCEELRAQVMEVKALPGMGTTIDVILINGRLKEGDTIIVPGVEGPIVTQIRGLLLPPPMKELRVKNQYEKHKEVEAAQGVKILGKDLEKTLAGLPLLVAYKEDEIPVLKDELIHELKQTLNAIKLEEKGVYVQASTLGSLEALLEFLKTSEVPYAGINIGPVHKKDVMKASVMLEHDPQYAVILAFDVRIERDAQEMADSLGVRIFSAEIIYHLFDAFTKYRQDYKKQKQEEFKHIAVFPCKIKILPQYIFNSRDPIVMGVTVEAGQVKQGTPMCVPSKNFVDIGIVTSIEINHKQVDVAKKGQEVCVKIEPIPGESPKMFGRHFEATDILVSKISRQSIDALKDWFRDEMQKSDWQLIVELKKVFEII

[7] = molecular target: G protein-coupled receptor kinase 6 (Homo sapiens, UniProt P43250)
Chain of G protein-coupled receptor kinase 6 (P43250 whole entry): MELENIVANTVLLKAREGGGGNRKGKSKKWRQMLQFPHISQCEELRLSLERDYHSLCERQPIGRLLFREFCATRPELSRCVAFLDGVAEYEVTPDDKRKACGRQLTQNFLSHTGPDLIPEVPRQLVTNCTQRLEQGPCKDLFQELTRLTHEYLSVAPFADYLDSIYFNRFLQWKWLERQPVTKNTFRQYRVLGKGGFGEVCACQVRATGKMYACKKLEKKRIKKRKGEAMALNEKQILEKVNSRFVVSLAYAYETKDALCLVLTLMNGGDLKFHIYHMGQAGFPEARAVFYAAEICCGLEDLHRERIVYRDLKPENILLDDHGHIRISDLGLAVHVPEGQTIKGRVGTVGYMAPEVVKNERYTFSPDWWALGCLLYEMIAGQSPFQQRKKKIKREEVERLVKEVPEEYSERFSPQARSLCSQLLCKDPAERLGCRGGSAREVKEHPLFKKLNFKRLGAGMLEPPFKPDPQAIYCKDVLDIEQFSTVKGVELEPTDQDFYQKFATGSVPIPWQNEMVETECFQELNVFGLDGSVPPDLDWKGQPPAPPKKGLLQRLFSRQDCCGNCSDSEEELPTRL

[8] = molecular target: Serine/threonine-protein kinase ATR (Homo sapiens, UniProt Q13535)
[9] = molecular target: Cell division cycle 7-related protein kinase (Homo sapiens, UniProt O00311)
Chain of Cell division cycle 7-related protein kinase (O00311 whole entry): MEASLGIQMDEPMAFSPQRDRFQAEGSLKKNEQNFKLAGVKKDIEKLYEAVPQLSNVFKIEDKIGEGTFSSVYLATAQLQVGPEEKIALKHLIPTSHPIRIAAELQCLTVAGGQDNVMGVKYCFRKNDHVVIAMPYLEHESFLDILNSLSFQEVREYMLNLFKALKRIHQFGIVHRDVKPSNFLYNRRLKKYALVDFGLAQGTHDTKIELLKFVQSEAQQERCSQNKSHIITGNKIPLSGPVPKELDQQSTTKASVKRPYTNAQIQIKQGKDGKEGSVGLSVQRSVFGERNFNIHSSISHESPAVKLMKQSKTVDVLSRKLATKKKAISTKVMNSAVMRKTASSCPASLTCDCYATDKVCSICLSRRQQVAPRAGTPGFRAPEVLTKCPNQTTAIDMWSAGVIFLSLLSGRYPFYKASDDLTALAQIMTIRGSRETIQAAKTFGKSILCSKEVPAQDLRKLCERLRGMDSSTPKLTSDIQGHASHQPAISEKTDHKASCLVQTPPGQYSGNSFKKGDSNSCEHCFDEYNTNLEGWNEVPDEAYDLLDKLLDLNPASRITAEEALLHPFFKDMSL
Note: in the data inactive means no Kd found up to 30 µM.

Chain of Hepatocyte growth factor receptor (P08581 whole entry): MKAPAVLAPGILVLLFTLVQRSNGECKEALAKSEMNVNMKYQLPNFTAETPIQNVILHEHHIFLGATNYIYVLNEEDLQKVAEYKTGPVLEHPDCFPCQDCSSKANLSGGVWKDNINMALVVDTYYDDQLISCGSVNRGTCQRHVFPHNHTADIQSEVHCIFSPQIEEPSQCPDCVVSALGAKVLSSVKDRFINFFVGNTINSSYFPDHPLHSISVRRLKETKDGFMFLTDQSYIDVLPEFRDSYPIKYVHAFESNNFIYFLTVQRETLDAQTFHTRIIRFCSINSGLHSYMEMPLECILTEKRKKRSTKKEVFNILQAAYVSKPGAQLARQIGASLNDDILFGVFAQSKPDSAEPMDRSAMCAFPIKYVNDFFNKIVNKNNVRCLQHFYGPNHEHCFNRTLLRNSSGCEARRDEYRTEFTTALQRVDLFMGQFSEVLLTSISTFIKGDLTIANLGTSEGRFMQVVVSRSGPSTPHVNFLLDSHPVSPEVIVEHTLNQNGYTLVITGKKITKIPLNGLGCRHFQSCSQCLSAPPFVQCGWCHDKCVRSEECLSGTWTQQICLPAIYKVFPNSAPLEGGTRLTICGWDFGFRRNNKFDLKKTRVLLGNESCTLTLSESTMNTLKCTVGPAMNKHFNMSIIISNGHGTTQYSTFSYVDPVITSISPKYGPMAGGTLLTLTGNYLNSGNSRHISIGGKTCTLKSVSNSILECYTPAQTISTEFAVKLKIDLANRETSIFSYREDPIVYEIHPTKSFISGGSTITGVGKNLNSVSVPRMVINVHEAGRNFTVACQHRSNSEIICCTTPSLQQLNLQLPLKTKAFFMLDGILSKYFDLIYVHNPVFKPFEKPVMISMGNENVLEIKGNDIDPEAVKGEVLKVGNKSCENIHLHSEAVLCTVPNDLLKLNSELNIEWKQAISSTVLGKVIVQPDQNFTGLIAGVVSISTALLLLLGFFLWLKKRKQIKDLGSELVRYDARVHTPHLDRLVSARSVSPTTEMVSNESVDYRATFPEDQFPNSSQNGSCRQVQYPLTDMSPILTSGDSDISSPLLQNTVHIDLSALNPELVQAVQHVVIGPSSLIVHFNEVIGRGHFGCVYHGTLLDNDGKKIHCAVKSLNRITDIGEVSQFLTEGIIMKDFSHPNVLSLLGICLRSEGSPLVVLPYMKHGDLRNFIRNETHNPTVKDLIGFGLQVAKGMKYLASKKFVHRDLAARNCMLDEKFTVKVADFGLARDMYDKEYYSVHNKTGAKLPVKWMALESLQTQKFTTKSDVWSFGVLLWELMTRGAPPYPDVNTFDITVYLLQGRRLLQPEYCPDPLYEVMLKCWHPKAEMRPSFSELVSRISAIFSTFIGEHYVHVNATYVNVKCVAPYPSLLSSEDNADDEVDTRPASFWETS

SMILES | Kd [1] | Kd (Activated CDC42 kinase 1) | Kd (dCTP pyrophosphatase 1) | Kd (Aurora kinase A) | Kd (Ephrin type-A receptor 7) | Kd [2] | Kd [3] | Kd [4] | Kd [5] | Kd [6] | Kd [7] | Kd [8] | Kd [9]
Cc1c(NC(=O)OC[C@@H]2COCCN2)cn2ncnc(Nc3ccc4c(cnn4Cc4cccc(F)c4)c3)c12 [AC-480] | > 30 µM (inactive) | > 30 µM (inactive) | > 30 µM (inactive) | > 30 µM (inactive) | > 30 µM (inactive) | > 30 µM (inactive) | > 30 µM (inactive) | > 30 µM (inactive) | – | – | – | – | –
NC[C@@](O)(c1ccc(Cl)cc1)c1ccc(-c2cn[nH]c2)cc1 [AT-13148] | > 30 µM (inactive) | > 30 µM (inactive) | > 30 µM (inactive) | > 30 µM (inactive) | > 30 µM (inactive) | > 30 µM (inactive) | – | > 30 µM (inactive) | > 30 µM (inactive) | > 30 µM (inactive) | – | – | –
COc1cccc(Nc2ncnn3ccc(CN4CC[C@@H](N)[C@H](O)C4)c23)c1 [BMS-690514] | – | 0.208 µM (active) | > 30 µM (inactive) | > 30 µM (inactive) | > 30 µM (inactive) | > 30 µM (inactive) | – | > 30 µM (inactive) | – | – | – | – | –
CN(C)C/C=C/C(=O)Nc1cc2c(Nc3ccc(F)c(Cl)c3)ncnc2cc1O[C@H]1CCOC1 [AFATINIB] | – | – | > 30 µM (inactive) | – | – | – | – | – | – | – | – | – | > 30 µM (inactive)
CCc1nc(C(N)=O)c(Nc2ccc(N3CCC(N4CCN(C)CC4)CC3)c(OC)c2)nc1NC1CCOCC1 [GILTERITINIB] | – | 3.15 µM (active) | > 30 µM (inactive) | 0.184 µM | 2.98 µM (active) | 0.247 µM | – | 0.482 µM (active) | – | > 30 µM (inactive) | – | – | –
O=c1[nH]c([C@@H]2CCCN2)nc2c1oc1ccc(Cl)cc12 | > 30 µM (inactive) | > 30 µM (inactive) | > 30 µM (inactive) | > 30 µM (inactive) | > 30 µM (inactive) | > 30 µM (inactive) | – | > 30 µM (inactive) | – | > 30 µM (inactive) | – | > 30 µM (inactive) | > 30 µM (inactive)
Cc1cc(C(=O)Nc2cc(Oc3ccc4nc(NC(=O)C5CC5)cn4n3)ccc2C)n(C)n1 [TAK-593] | > 30 µM (inactive) | > 30 µM (inactive) | > 30 µM (inactive) | > 30 µM (inactive) | > 30 µM (inactive) | > 30 µM (inactive) | – | > 30 µM (inactive) | > 30 µM (inactive) | – | > 30 µM (inactive) | – | –
C=CC(=O)Nc1cccc(Nc2nc(Nc3ccc(N4CCN(C(C)=O)CC4)cc3OC)ncc2C(F)(F)F)c1 [ROCILETINIB] | – | > 30 µM (inactive) | > 30 µM (inactive) | > 30 µM (inactive) | > 30 µM (inactive) | > 30 µM (inactive) | – | > 30 µM (inactive) | > 30 µM (inactive) | > 30 µM (inactive) | – | > 30 µM (inactive) | –
CC1(C)CNc2cc(NC(=O)c3cccnc3NCc3ccncc3)ccc21 [MOTESANIB] | – | – | > 30 µM (inactive) | – | – | – | – | – | – | > 30 µM (inactive) | > 30 µM (inactive) | – | > 30 µM (inactive)

Second part, the compound after the results:

Kd [1] | Kd (Activated CDC42 kinase 1) | Kd (dCTP pyrophosphatase 1) | Kd (Aurora kinase A) | Kd (Ephrin type-A receptor 7) | Kd [2] | Kd [3] | Kd [4] | Kd [5] | Kd [6] | Kd [7] | Kd [8] | Kd [9] | SMILES
> 30 µM (inactive) | > 30 µM (inactive) | > 30 µM (inactive) | > 30 µM (inactive) | > 30 µM (inactive) | > 30 µM (inactive) | > 30 µM (inactive) | > 30 µM (inactive) | > 30 µM (inactive) | > 30 µM (inactive) | > 30 µM (inactive) | > 30 µM (inactive) | – | CNC(=O)c1cc(COc2nnc(Nc3ccc(Cl)cc3)c3ccoc23)ccn1 [TELATINIB]
– | – | > 30 µM (inactive) | – | > 30 µM (inactive) | – | > 30 µM (inactive) | > 30 µM (inactive) | – | > 30 µM (inactive) | – | > 30 µM (inactive) | – | Cn1c(=O)n(-c2ccc(C(C)(C)C#N)cc2)c2c3cc(-c4cnc5ccccc5c4)ccc3ncc21 [DACTOLISIB]
– | – | > 30 µM (inactive) | – | – | – | – | – | – | > 30 µM (inactive) | > 30 µM (inactive) | > 30 µM (inactive) | > 30 µM (inactive) | COc1cc2c(Oc3ccc4[nH]c(C)cc4c3F)ncnc2cc1OCCCN1CCCC1 [CEDIRANIB]
– | – | > 30 µM (inactive) | – | – | – | – | – | – | > 30 µM (inactive) | > 30 µM (inactive) | – | > 30 µM (inactive) | COc1cc2c(N3CCN(C(=O)Nc4ccc(OC(C)C)cc4)CC3)ncnc2cc1OCCCN1CCCCC1 [TANDUTINIB]
> 30 µM (inactive) | > 30 µM (inactive) | > 30 µM (inactive) | > 30 µM (inactive) | > 30 µM (inactive) | > 30 µM (inactive) | – | > 30 µM (inactive) | > 30 µM (inactive) | – | > 30 µM (inactive) | – | > 30 µM (inactive) | FC(F)(F)c1ccc(CNc2ccc(Cc3c[nH]c4ncc(Cl)cc34)cn2)cn1 [PEXIDARTINIB]
– | > 30 µM (inactive) | > 30 µM (inactive) | > 30 µM (inactive) | > 30 µM (inactive) | > 30 µM (inactive) | – | 1.16 µM (active) | > 30 µM (inactive) | > 30 µM (inactive) | > 30 µM (inactive) | – | – | COc1cccc2cc(-c3nc([C@H]4CC[C@H](C(=O)O)CC4)n4ncnc(N)c34)[nH]c12 [OSI-027]
– | – | > 30 µM (inactive) | – | – | – | – | – | – | > 30 µM (inactive) | – | – | > 30 µM (inactive) | Cn1cnc2c(F)c(Nc3ccc(Br)cc3Cl)c(C(=O)NOCCO)cc21 [SELUMETINIB]
0.094 µM | > 30 µM (inactive) | > 30 µM (inactive) | > 30 µM (inactive) | > 30 µM (inactive) | > 30 µM (inactive) | – | > 30 µM (inactive) | – | – | – | – | – | CC[C@@](C)(Nc1ccnc(-c2c[nH]c3ncccc23)n1)C(=O)NCC(F)(F)F [DECERNOTINIB]
– | – | > 30 µM (inactive) | – | – | – | – | – | – | > 30 µM (inactive) | > 30 µM (inactive) | > 30 µM (inactive) | – | C[C@@]1(C(=O)Nc2ccc(F)nc2)CCCN1c1nc(Nc2cc(C3CC3)n[nH]2)c2cccn2n1 [BMS-754807]
> 30 µM (inactive) | > 30 µM (inactive) | > 30 µM (inactive) | > 30 µM (inactive) | > 30 µM (inactive) | > 30 µM (inactive) | – | 0.39 µM (active) | > 30 µM (inactive) | > 30 µM (inactive) | – | – | – | COc1cc2ncnc3c2cc1OCCCCCN(C)Cc1ccc(Br)cc1N3 [JNJ-26483327]
